From patent US6924292B2, “Furoisoquinoline derivatives, process for producing the same and use thereof” (Takeda Chemical Industries, Ltd., priority 2000, dated 2005) come the findings set out here.

Usually IC50 stands for the point on the concentration scale where inhibition reaches its midpoint.

Assay [1] deals with antigen-induced bronchoconstriction. Nature of the assay: Inhibiting effect on antigen-induced bronchoconstriction in guinea pigs (modified Konzett-Rossler method). It is filed as in vivo. Particulars: guinea pig, 1 mg/kg intravenously 5 minutes before the antigen challenge, vs control group. How it is done: Example 2 Inhibiting Effect on Antigen-induced Bronchoconstriction in Guinea Pigs
(1) Preparation of Rabbit Anti-ovalbumin (OA) Serum
A white rabbit (body weight: about 3 kg; New Zealand white: […] LABES) was immunized by an intramuscular administration of 1.0 mL of an emulsion of 0.5 mL of a 10% OA (Grade III, Sigma) solution and 0.5 mL of Freund Complete Adjuvant (WAKO PURE CHEMICAL […], LTD.). This procedure was conducted once every week repetitively 4 times in total. One week after the final immunization, the whole blood was sampled. The blood sample was allowed to stand at room temperature for 1 hour or longer, and then in a refrigeration room for a day. On the following day, the serum fraction was isolated and centrifuged (3000 rpm, 10 min.), and the supernatant was stored as an antiserum at −20° C.
(2) Antigen-induced Bronchoconstriction
The bronchoconstriction was measured by a modified Konzett-Rossler method. Each male Hartley guinea pig weighing 400 to 500 g (NIPPON SLC, Shizuoka) was anesthetized with ether, treated intravenously with 1.0 mL of a 8- to 16-fold diluted anti-OA serum, and subjected to an experiment after 16 to 24 hours. Under an anesthesia with urethane (1.2 g/kg ip) (Aldrich), a tracheal cannula was inserted, and gallamine triethiodide (1 mg/kg iv) (Sigma) was administered to arrest the spontaneous respiration. The animal was ventilated artificially using an artificial respirator (Harvard model 683) at 70 respirations/minutes, with each ventilation volume of 2 to 3 mL and initial load of 10 cmH2O, and the intratracheal pressure was measured at the side arm of the tracheal cannula using a differential pressure type transducer. Mepyramine maleate (1.0 mg/kg) (Sigma) and propranolol (1.0 mg/kg) (Sigma) were administered intravenously 2 minutes after the administration of gallamine triethiodide, and after further 2 minutes the OA antigen (1.0 mg/kg) was administered intravenously to induce the bronchoconstriction.
A compound of Example was dissolved in 25% dimethylacetamide, 25% polyethylene glycol 400 and 50% physiological saline, and administered intravenously 5 minutes before the antigen challenge at a dose of 1 mg/kg. Percent inhibition was calculated based on the comparison with a control group (intravenous administration of a mixture of 25% dimethylacetamide, 25% polyethylene glycol 400 and 50% physiological saline).

For assay [2], the target named is T1, recombinant human brain-derived phosphodiesterase 4D3 (Homo sapiens, UniProt Q08499).
T1 construct: GST (N); made in house; host or cells: Escherichia coli BL21 (BL21/pPDE4D3, FERM BP-7075)
Nature of the assay: Assay of phosphodiesterase IV-inhibiting effect (SPA, [3H]cAMP). Type of assay: biochemical. Particulars: recombinant human brain-derived phosphodiesterase 4D3, SPA with [3H]cAMP, 30 minutes at 30° C.; read-out: PDE IV-inhibiting effect (IC50). The source says: Experiment Example 1 Assay of Phosphodiesterase IV-inhibiting Effect
(1) Human Brain-derived Phosphodiesterase 4D3-encoding Gene Cloning
From a human brain cDNA library, a gene encoding phosphodiesterase 4D3 was cloned. […] The resultant PCR product was subjected to an agarose gel electrophoresis and an about 2.4 kb DNA fragment was recovered. This fragment was made blunt using a Pfu DNA polymerase ([…]) and then a phosphodiesterase 4D3 gene was cloned using Zero Blunt PCR Cloning Kit (Invitrogen).
(2) Construction of E.coli Expression Vector
The plasmid obtained in Section (1) described above was digested with a restriction enzyme EcoRI (Takara) and subjected to an agarose gel electrophoresis to recover an about 2.4 kb DNA fragment. […] This cDNA fragment was transformed into an E.coli BL21 (FUNAKOSHI) using a ligation solution, whereby obtaining an Escherichia coli BL21/pPDE4D3 capable of expressing the phosphodiesterase 4D3 gene.
(3) Expression of Recombinant Human Brain-derived Phosphodiesterase 4D3 in Escherichia coli and Purification Thereof
Using the Escherichia coli BL21/pPDE4D3 obtained in Section (2) described above, a recombinant human brain-derived phosphodiesterase 4D3 was obtained. The expression and purification of E. coli were in accordance with the protocol attached to GST Gene Fusion System (Pharmacia).
(4) Assay of Phosphodiesterase IV-inhibiting Effect
To a 96-well plate (OPTI plate, Packard), 10 μl of a buffer solution [0.5 M Tris-HCl (pH7.5), 83 mM MgCl2, 17 mM EGTA], 10 μl of the recombinant human brain-derived phosphodiesterase 4D3 (0.0034 mg/mL) obtained in […] described above, 65 μl of Ultrapure water, 5 μl of an inhibitor sample and 10 μl of [^3H]cAMP were added and reacted for 30 minutes at 30° C. After completing the reaction, 50 μl of SPA beads solution [18 mg/mL Yttrium silicate beads, 18 mM ZnSO4] was added, allowed to stand at room temperature for about 20 minutes, and the radioactivity was counted using a scintillation counter (Topcount, Packard). […] This assay system was employed to determine the recombinant human brain-derived phosphodiesterase-inhibiting effect (IC50) of each inventive compound.

T1 sequence (Q08499 1-673 isoform Q08499-2): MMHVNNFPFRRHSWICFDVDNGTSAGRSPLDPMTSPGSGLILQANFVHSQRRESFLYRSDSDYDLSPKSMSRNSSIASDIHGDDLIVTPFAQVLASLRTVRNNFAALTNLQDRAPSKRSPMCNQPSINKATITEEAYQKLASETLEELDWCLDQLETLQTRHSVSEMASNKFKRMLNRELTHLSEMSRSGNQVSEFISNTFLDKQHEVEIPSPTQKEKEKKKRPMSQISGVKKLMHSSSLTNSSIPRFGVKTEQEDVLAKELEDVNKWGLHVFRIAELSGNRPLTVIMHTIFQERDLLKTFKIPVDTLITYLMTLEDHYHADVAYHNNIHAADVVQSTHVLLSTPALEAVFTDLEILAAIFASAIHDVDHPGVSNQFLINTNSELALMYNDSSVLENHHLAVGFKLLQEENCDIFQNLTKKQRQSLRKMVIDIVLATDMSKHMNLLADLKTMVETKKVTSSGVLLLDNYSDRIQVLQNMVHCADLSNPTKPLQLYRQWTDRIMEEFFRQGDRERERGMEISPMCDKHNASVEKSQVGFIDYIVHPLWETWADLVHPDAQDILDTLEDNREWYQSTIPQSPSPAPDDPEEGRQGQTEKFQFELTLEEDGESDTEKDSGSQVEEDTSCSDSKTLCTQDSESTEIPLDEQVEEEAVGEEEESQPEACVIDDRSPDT

With `COc1cc2c(c3c1OC(C)(C)C3)C(c1cccc(NC(=O)C[S+](C)[O-])c1)=NC(C)(C)C2` (centres unmarked) [Example 39, 2-(Methylsulfinyl)-N-[3-(3,4,8,9-tetrahydro-6-methoxy-3,3,8,8-tetramethylfuro[2,3-h]isoquinolin-1-yl)phenyl]acetamide], the “% inhibition in bronchoconstriction” value in assay [1] was 45%. Further, the IC50 in assay [2] was found to be 19.4 nM.

On to `COc1cc2c(c3c1OC(C)(C)C3)C(c1cccc(N(S(C)(=O)=O)S(C)(=O)=O)c1)=NC(C)(C)C2` [Example 45, N-(Methylsulfonyl)-N-[3-(3.4,8,9-tetrahydro-6-methoxy-3,3,8,8-tetramethylfuro[2,3-h]isoquinolin-1-yl)phenyl]methanesulfonamide], for which the “% inhibition in bronchoconstriction” value in assay [1] came out at 44%. In addition, the half-inhibitory concentration (IC50) in assay [2] was 9.36 nM.

Regarding `COc1cc2c(c3c1OC(C)(C)C3)C(c1cccc(C(=O)NCC(N)=O)c1)=NC(C)(C)C2` [Example 157, N-(2-Amino-2-oxoethyl)-3-(3,4,8,9-tetrahydro-6-methoxy-3,3,8,8-tetramethylfuro[2,3-h]isoquinolin-1-yl)benzamide], the “% inhibition in bronchoconstriction” value in assay [1] was 57%. Besides, in assay [2], the concentration for half-maximal inhibition (IC50) worked out at 82 nM.

For `COc1cc2c(c3c1OC(C)(C)C3)C(c1cccc(-c3cccc(NC(C)=O)c3)c1)=NC(C)(C)C2` [Example 263, N-[3′-(3,4,8,9-Tetrahydro-6-methoxy-3,3,8,8-tetramethylfuro[2,3-h]isoquinolin-1-yl)[1,1′-biphenyl]-3-yl]acetamide], the “% inhibition in bronchoconstriction” value in assay [1] was determined as 59%. In addition, the IC50 in assay [2] was determined as 13.7 nM.

As to `CCNC(=O)c1cccc(C2=NC(C)(C)Cc3cc(OC)c4c(c32)CC(C)(C)O4)c1` [Example 180, N-Ethyl-3-(3,4,8,9-tetrahydro-6-methoxy-3,3,8,8-tetramethylfuro[2,3-h]isoquinolin-1-yl)benzamide], the “% inhibition in bronchoconstriction” value in assay [1] came out at 57%. In addition, the IC50 in assay [2] was 123 nM.

On to `COc1cc2c(c3c1OC(C)(C)C3)C(c1cccc(C(=O)NCCc3ccncc3)c1)=NC(C)(C)C2` [Example 149, N-[2-(4-Pyridinyl)ethyl]-3-(3,4.8,9-tetrahydro-6-methoxy-3,3,8,8-tetramethylfuro[2,3-h]isoquinolin-1-yl)benzamide], for which, in assay [1], the “% inhibition in bronchoconstriction” value is recorded as 58%. Further, the IC50 in assay [2] is 40.1 nM.

On to `CNC(=O)c1cccc(C2=NC(C)(C)Cc3cc(OC)c4c(c32)CC(C)(C)O4)c1` [Example 179, N-Methyl-3-(3,4,8,9-tetrahydro-6-methoxy-3,3,8,8-tetramethylfuro[2,3-h]isoquinolin-1-yl)benzamide], for which the “% inhibition in bronchoconstriction” value in assay [1] was 46%. In addition, the half-inhibitory concentration (IC50) in assay [2] stood at 124 nM.
